Assay results reported in patent US12583861B2, “Derivatives of imidazo[4,5-d]pyridazine, their preparation and their therapeutic application” (SANOFI, priority 2021, dated 2026).
Like-named read-outs stand apart in the source and are kept apart here.

Key:
Format in all cases: cell-based
human TLR7 = biological target: T1, human TLR7 (Homo sapiens, UniProt Q9NYK1); assay: HEK-Blue hTLR7 reporter cell assay (SEAP, NF-kB/AP-1) for stimulation of human TLR7; settings: HEK-Blue hTLR7 cells, 24 h incubation, SEAP readout; read-out: TLR7_EC50
T1 construct: host or cells: HEK293 (HEK-Blue hTLR7)
T1 sequence (Q9NYK1 27-1049): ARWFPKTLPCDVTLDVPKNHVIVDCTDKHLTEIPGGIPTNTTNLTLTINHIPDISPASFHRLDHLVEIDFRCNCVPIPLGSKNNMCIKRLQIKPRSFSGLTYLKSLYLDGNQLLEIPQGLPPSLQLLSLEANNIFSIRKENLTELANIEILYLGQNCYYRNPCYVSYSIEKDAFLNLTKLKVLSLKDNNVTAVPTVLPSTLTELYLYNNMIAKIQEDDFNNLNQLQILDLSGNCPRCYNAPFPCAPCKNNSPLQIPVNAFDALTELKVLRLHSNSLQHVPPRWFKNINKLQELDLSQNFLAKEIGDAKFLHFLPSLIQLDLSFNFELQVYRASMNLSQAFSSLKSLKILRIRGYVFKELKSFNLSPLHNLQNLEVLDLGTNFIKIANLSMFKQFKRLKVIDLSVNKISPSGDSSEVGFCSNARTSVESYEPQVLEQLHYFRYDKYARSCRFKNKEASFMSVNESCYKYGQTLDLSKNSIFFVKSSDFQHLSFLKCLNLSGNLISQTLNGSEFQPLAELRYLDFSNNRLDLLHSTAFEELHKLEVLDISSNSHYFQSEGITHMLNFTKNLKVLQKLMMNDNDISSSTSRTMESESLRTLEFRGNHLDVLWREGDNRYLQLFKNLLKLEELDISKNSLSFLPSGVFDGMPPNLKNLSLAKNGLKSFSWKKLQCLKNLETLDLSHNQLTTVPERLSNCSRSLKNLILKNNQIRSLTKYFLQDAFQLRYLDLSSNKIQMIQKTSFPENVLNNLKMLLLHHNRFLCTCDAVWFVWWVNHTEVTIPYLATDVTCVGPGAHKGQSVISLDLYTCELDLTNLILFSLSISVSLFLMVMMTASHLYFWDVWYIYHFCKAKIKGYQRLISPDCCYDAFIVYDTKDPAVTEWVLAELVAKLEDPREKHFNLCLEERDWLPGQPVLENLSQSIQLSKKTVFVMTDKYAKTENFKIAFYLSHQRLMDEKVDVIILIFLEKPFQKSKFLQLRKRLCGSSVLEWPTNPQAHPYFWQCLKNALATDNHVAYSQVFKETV
Method in brief: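 Activity expressed as EC50 for half-maximal SEAP induction. Compounds, serially diluted 3-fold from 20 to 0.01 μM, were incubated 24 h at 37 °C, 5% CO2 with HEK-Blue hTLR7 reporter cells (3.10E4/well, plated 18–24 h earlier); supernatant developed with QUANTI-Blue.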

IL29 = IL29 cytokine activation in human PBMC (MSD assay)
Method: (§1) The other below tests involving measuring the in vitro activity of some compounds of the disclosure on cytokines IFN-α2a, IL-6, IL29 and TNF-α were carried out using human PBMC (PBMCs).
(§2) The activity described below, with respect to TLR7, TLR8, IFN-α2a, IL-6, IL29 and TNF-α, is given by the half maximal effective concentration (EC50), which corresponds to the concentration required to obtain a 50% of the activation. The lower the EC50, the less the concentration of the compound is required to produce 50% of maximum activation and the higher the potency.
(§3) In Vitro Assay to Determine IFN-α2a, IL-6, IL29 and TNF-α Cytokine Activation:
(§4) Peripheral blood mononuclear cells were isolated by Ficoll density gradient centrifugation from peripheral blood samples obtained from healthy donors (EFS). Isolated PBMCs are washed twice with PBS and resuspended in RPMI-1640 medium supplement with 10% fetal bovine serum (FBS) at 5.10^5 cells/well in a 96-well plate. The cells were then incubated with the compounds to test at various doses (20 μM to 4.8.10-6 μM final) for 24 h at 37° C., 5% CO2. After 24 h treatment, the plates are centrifuged and the supernatant were collected and assayed for cytokines IFN-α2a, IL-6, IL29 and TNF-α using the Meso Scale Discovery (MSD) assay platform according to the manufacturer's instructions. Briefly, 25 μL of cell culture supernatants were incubated for 1 h at Room Temperature (RT) in custom Multi-Spot 96-well plates prior coated with capture antibodies. After washing, SULFO-TAG® labeled detection antibodies were added to each of the wells and incubated for 1 h RT before adding a read buffer.

IL-6 = IL-6 cytokine activation in human PBMC (MSD assay); settings: read-out: IL6 EC50
Method: as §1, §2, §3, §4

IFN-α2a = IFN-α2a cytokine activation in human PBMC (MSD assay)
Method: as §1, §2, §3, §4

| EC50 (human TLR7) [µM] | EC50 (IL29; Homo sapiens, PBMC, 24 h) [µM] | EC50 (IL-6; Homo sapiens, PBMC, 24 h) [µM] | EC50 (IFN-α2a; Homo sapiens, PBMC, 24 h) [µM] | EC50 (IL29; 24 h) [µM] | EC50 (IL-6; 24 h) [µM] | EC50 (IFN-α2a; 24 h) [µM] | EC50 (IL29; 24 h, 2,2,2-trifluoroacetate) [µM] | EC50 (IL-6; 24 h, 2,2,2-trifluoroacetate) [µM] | EC50 (IFN-α2a; 24 h, 2,2,2-trifluoroacetate) [µM] | SMILES |
| --- | --- | --- | --- | --- | --- | --- | --- | --- | --- | --- |
| 0.172 | 0.003 | 0.204 | 0.003 | – | – | – | – | – | – | CCCCc1nc2c(N)nnc(OC(C)C)c2n1C[C@H]1CCC[C@@H](N)C1 (racemic) [Compound 23, 1-(((1S,3R)-3-aminocyclohexyl)methyl)-2-butyl-7-isopropoxy-1H-imidazo[4,5-d]pyridazin-4-amine (and enantiomer)] |
| 0.103 | 0.173 | 0.457 | 0.103 | – | – | – | – | – | – | CCCCc1nc2c(N)nnc(OC(C)C)c2n1Cc1ccc(OC)cc1 [Compound 1, 2-butyl-7-isopropoxy-1-(4-methoxybenzyl)-1H-imidazo[4,5-d]pyridazin-4-amine] |
| 0.053 | 0.006 | 0.099 | 0.003 | – | – | – | – | – | – | CCCCc1nc2c(N)nnc(NC(C)C)c2n1Cc1ccc(OC)cc1 [Compound 2, 2-butyl-N7-isopropyl-1-(4-methoxybenzyl)-1H-imidazo[4,5-d]pyridazin-4,7-diamine] |
| 0.566 | 0.083 | 1.41 | 0.062 | – | – | – | – | – | – | CCCCc1nc2c(N)nnc(SC(C)C)c2n1Cc1ccc(OC)cc1 [Compound 3, 2-butyl-7-(isopropylthio)-1-(4-methoxybenzyl)-1H-imidazo[4,5-d]pyridazin-4-amine] |
| 1.26 | 0.795 | 1.94 | 0.081 | – | – | – | – | – | – | CCCCc1nc2c(N)nnc(OCCOC)c2n1Cc1ccc(OC)cc1 [Compound 4, 2-butyl-1-(4-methoxybenzyl)-7-(2-methoxyethoxy)-1H-imidazo[4,5-d]pyridazin-4-amine] |
| 0.295 | 0.062 | 0.331 | 0.112 | – | – | – | – | – | – | C=CCOc1nnc(N)c2nc(CCCC)n(Cc3ccc(OC)cc3)c12 [Compound 6, 7-(allyloxy)-2-butyl-1-(4-methoxybenzyl)-1H-imidazo[4,5-d]pyridazin-4-amine] |
| 0.135 | 0.015 | 0.149 | 0.016 | – | – | – | – | – | – | CCCCc1nc2c(N)nnc(OC3CCCC3)c2n1Cc1ccc(OC)cc1 [Compound 9, 2-butyl-7-(cyclopentyloxy)-1-(4-methoxybenzyl)-1H-imidazo[4,5-d]pyridazin-4-amine] |
| 0.12 | 0.016 | 0.177 | 0.014 | – | – | – | – | – | – | CCCCc1nc2c(N)nnc(N3CCCC3)c2n1Cc1ccc(OC)cc1 [Compound 10, 2-butyl-1-(4-methoxybenzyl)-7-(pyrrolidin-1-yl)-1H-imidazo[4,5-d]pyridazin-4-amine] |
| 0.219 | 0.02 | 0.106 | 0.018 | – | – | – | – | – | – | CCCCc1nc2c(N)nnc(-c3cc[nH]c3)c2n1Cc1ccc(OC)cc1 [Compound 14, 2-butyl-1-(4-methoxybenzyl)-7-(1H-pyrrol-3-yl)-1H-imidazo[4,5-d]pyridazin-4-amine] |
| 0.155 | 0.029 | 0.186 | 0.017 | – | – | – | – | – | – | C=C(C)c1nnc(N)c2nc(CCCC)n(Cc3ccc(OC)cc3)c12 [Compound 17, 2-butyl-1-(4-methoxybenzyl)-7-(prop-1-en-2-yl)-1H-imidazo[4,5-d]pyridazin-4-amine] |
| 0.355 | 0.109 | 0.548 | 0.071 | – | – | – | – | – | – | CCCCc1nc2c(N)nnc(C(C)C)c2n1Cc1ccc(OC)cc1 [Compound 18, 2-butyl-7-isopropyl-1-(4-methoxybenzyl)-1H-imidazo[4,5-d]pyridazin-4-amine] |
| 0.033 | – | – | – | 0.0003 | 0.008 | 0.0004 | – | – | – | CCCCc1nc2c(N)nnc(OC(C)C)c2n1Cc1ccc(CN)cc1 [Compound 21, 1-(4-(aminomethyl)benzyl)-2-butyl-7-isopropoxy-1H-imidazo[4,5-d]pyridazin-4-amine] |
| 0.03 | – | – | – | – | – | – | 0.0001 | 0.165 | 0.0001 | CCCCc1nc2c(N)nnc(OC(C)C)c2n1Cc1ccc(CN)cc1 [Compound 22, 1-(4-(aminomethyl)benzyl)-2-butyl-7-isopropoxy-1H-imidazo[4,5-d]pyridazin-4-amine 2,2,2-trifluoroacetate] |
| 0.392 | 0.002 | 0.052 | 0.003 | – | – | – | – | – | – | CCCCc1nc2c(N)nnc(OC(C)C)c2n1Cc1cccc(CN)c1 [Compound 33, 1-(3-(aminomethyl)benzyl)-2-butyl-7-isopropoxy-1H-imidazo[4,5-d]pyridazin-4-amine 2,2,2-trifluoroacetate] |
| 0.116 | 0.028 | 0.075 | 0.036 | – | – | – | – | – | – | CCCCc1nc2c(N)nnc(OC(C)C)c2n1Cc1ccc(C=O)cc1 [Compound 34, 4-((4-amino-2-butyl-7-isopropoxy-1H-imidazo[4,5-d]pyridazin-1-yl)methyl)benzaldehyde] |
| 0.106 | 0.015 | 0.04 | 0.021 | – | – | – | – | – | – | CCCCc1nc2c(N)nnc(OC(C)C)c2n1Cc1ccc(CO)cc1 [Compound 35, (4-((4-amino-2-butyl-7-isopropoxy-1H-imidazo[4,5-d]pyridazin-1-yl)methyl)phenyl)methanol] |
| 3.07 | 3.04 | 1.28 | 1.22 | – | – | – | – | – | – | CCCCc1nc2c(N)nnc(N(C)C)c2n1C [Compound 41, 2-butyl-N7,N7,1-trimethyl-1H-imidazo[4,5-d]pyridazine-4,7-diamine] |
| 0.16 | 0.099 | 0.368 | 0.089 | – | – | – | – | – | – | CCCCc1nc2c(N)nnc(OCC)c2n1Cc1ccc(OC)cc1 [Compound 48, 2-butyl-7-ethoxy-1-(4-methoxybenzyl)-1H-imidazo[4,5-d]pyridazin-4-amine] |
| 0.353 | 0.388 | 1.73 | 0.075 | – | – | – | – | – | – | CCCCc1nc2c(N)nnc(NCCOC)c2n1Cc1ccc(OC)cc1 [Compound 49, 2-butyl-1-(4-methoxybenzyl)-N7-(2-methoxyethyl)-1H-imidazo[4,5-d]pyridazine-4,7-diamine] |
| 0.291 | 0.057 | 0.571 | 0.063 | – | – | – | – | – | – | CCCCc1nc2c(N)nnc(N(C)C)c2n1Cc1ccc(OC)cc1 [Compound 71, 2-butyl-1-(4-methoxybenzyl)-N7,N7-dimethyl-1H-imidazo[4,5-d]pyridazine-4,7-diamine] |
| 0.179 | 0.034 | 0.181 | 0.017 | – | – | – | – | – | – | CCCCc1nc2c(N)nnc(OC(C)C)c2n1Cc1ccccn1 [Compound 75, 2-butyl-7-isopropoxy-1-(pyridin-2-ylmethyl)-1H-imidazo[4,5-d]pyridazin-4-amine] |
| 1.2 | 0.214 | 0.466 | 0.213 | – | – | – | – | – | – | CCCCc1nc2c(N)nnc(N3CCC(c4ccccc4)C3)c2n1C (stereo not shown) [Compound 89, 2-butyl-1-methyl-7-(3-phenylpyrrolidin-1-yl)-1H-imidazo[4,5-d]pyridazin-4-amine] |
